According to patent publication US10188747B2, “Methods and compositions for the treatment of cancer” (THE GENERAL HOSPITAL CORPORATION, priority 2014, dated 2019):

Columns and labels:
HKCs [1] = experiment: DAPT treatment of HKCs infected with Dlx5- and ERβ-expressing retroviruses, RT-qPCR; type: cell-based, human; settings: DAPT 10 μM, added 24 hours after infection, analysis 48 hours later
Protocol: HKCs under differentiating conditions (100% confluence for 3 days: 100% cf+3D) were analyzed in parallel as point of reference. […] FIG. 5B depicts graphs of HKCs with or without infection with EGR3-, DLX5-, and ERβ-expressing retroviruses as in the previous panel were treated with DAPT (10 μM) or DMSO control at 24 hours after infection followed, 48 hours later, by RT-qPCR analysis of involucrin gene expression, with 36β4 for normalization. As an alternative, HKCs stably infected with a shRNA lentivirus against NOTCH1 or empty vector control were superinfected with the EGR3, DLX5, and ERβ expressing retroviruses, followed 72 hours later by RT-qPCR analysis of the same genes. FIG. 5C depicts graphs of HKCs with or without infection with EGR3-, DLX5-, and ERβ-expressing retroviruses as in FIG. 5A were analyzed, 72 hours after infection, by RT-qPCR of the indicated genes. *P<0.001.
Conditions for RT-qPCR, immunoblotting, immunofluorescence and ChIP assays were as previously reported (9, 42). For immunoblotting, unless otherwise indicated, cells were lysed in SDS sample buffer (50 mM Tris-HCl pH 6.8, 2% SDS, 10% glycerol, 0.2 unit nuclease) and protein separation was done in 15-well 4-12% NuPAGE Bis-Tris polyacrylamide gels (Invitrogen). Equal loading controls were done by re-probing the same immunoblots unless otherwise indicated. […]

[2] = system: SCC13 (skin), SW900 (lung), and SCCO13 (oral) SCC cells; experiment: DAPT treatment of SCC cells infected with ERβ-expressing viral vectors, RT-qPCR; type: cell-based, human; settings: DAPT 10 μM, added 24 hours after infection, analysis 72 hours later; involucrin and keratin 10
Protocol: FIG. 9A depicts results of SCC cell lines infected with ERβ-expressing viral vectors versus controls as in FIGS. 8A-8E were analyzed for expression of the indicated proteins by immunoblotting. FIG. 9B depicts graphs of SCC13 (skin), SW900 (lung), and SCCO13 (oral) SCC cells infected with ERβ-expressing and control viral vectors were treated 24 hours after infection with DAPT (10 μM) or DMSO control followed, 72 hours later, by RT-qPCR analysis of involucrin and keratin 10 differentiation marker expression. *P<0.05.
To directly assess the impact of increased ERß signaling in SCC outgrowth, a panel of skin, oral and lung SCC cell lines were infected with ERß expressing versus control viruses. […] To test the in vivo impact of increased ERß expression, representative cell lines from skin (SCC13), head/neck (SCCO13) and lung SCCs (H2170) were assessed by intra-dermal tumorigenicity assays in immune compromised mice (42). Cells infected with the ERß expressing lentivirus formed tumors of similar size as the controls, but enhanced Notch1 expression and differentiation (FIGS. 9C-9D).
Conditions for RT-qPCR, immunoblotting, immunofluorescence and ChIP assays were as previously reported (9, 42). […]

HKCs [3] = experiment: Treatment of differentiating HKCs with ER ligands, RT-qPCR and immunoblot analysis; type: cell-based, human; settings: differentiating HKCs (100% confluence), 72 hours; 10 nM E2, 100 nM DPN, 100 nM PPT, 10 nM fulvestrant vs DMSO
Excerpt: (§1) FIG. 10B depicts graphs of expression of CYP1B1 determined by RT-qPCR in lung and keratinocyte-derived SCC cell lines in parallel with HBECs and HKCs, respectively. […] Data are presented as mean fold change of fluorescence intensity±SD (*P<0.05). FIG. 10D depicts graphs of indicated SCC cells plated in duplicate on Matrigel precoated chambers with spheroid number quantification 10 days later by ImageJ™ analysis of whole-cell images. Data are duplicates±SD (*P<0.05).
(§2) Besides estrogen, other agonists have been developed with elevated specificity for either the ERα or ERß receptors (43).
(§3) Conditions for RT-qPCR, immunoblotting, immunofluorescence and ChIP assays were as previously reported (9, 42). For immunoblotting, unless otherwise indicated, cells were lysed in SDS sample buffer (50 mM Tris-HCl pH 6.8, 2% SDS, 10% glycerol, 0.2 unit nuclease) and protein separation was done in 15-well 4-12% NuPAGE Bis-Tris polyacrylamide gels (Invitrogen). Equal loading controls were done by re-probing the same immunoblots unless otherwise indicated. All assays were done at least twice, with two HKC strains or epidermal samples of independent origin.

SCC cell lines = experiment: Treatment of a panel of SCC cell lines with DPN, Notch1 and differentiation marker expression; type: cell-based, human
Excerpt: as §1, §2, §3

SCC cells = experiment: Alamar blue cell density assays of SCC cells; type: cell-based, human; settings: Alamar blue density assay, vs DMSO, refreshed every other day
Excerpt: as §1
Clonogenicity and Alamar Blue assays were as reported (60). For spheroid assays, 8-well chamber slides were coated with matrigel (BDbiosciences, CA; 50 μl per well) and incubated at 37° C. for 20 minutes to allow matrigel to polymerize. SCC cells were brought into suspension in normal culture medium plus 1% matrigel (7000 cells/ml) and added in triplicates to the pre-coated chamber slides (300 μl of cell mixture per well). Medium was refreshed every other day. For organotypic cultures, HKCs were infected with shRNA expressing lentiviruses followed, 48 hours later, by selection for puromycin ([…]) resistance. Selected keratinocyte cultures were reseeded onto collagen gels with embedded J2-3T3 fibroblasts and cultured at the air-liquid interface as previously described (61). […]

[4] = system: skin, oral, and lung SCC cells; experiment: Spheroid formation assays of SCC cells in Matrigel; type: cell-based, human; settings: spheroid number 10 days later, vs DMSO
Excerpt: as §1
In vitro and animal model assays are provided herein which allow the assessment of a given dose of an agonist as described herein. By way of non-limiting example, the effects of a dose of an agonist can be assessed by spheroid assay. A non-limiting example of a protocol for such an assay is as follows: 8-well chamber slides are coated with matrigel (BDbiosciences, CA; 50 μl per well) and incubated at 37° C. for 20 minutes to allow matrigel to polymerize. SCC cells are brought into suspension in normal culture medium plus 1% matrigel (7000 cells/ml) and added in triplicates to the pre-coated chamber slides (300 μl of cell mixture per well). Medium is refreshed every other day. An agonist is added to the medium and cell growth and proliferation measured over time, e.g. by microscopy.
Clonogenicity and Alamar Blue assays were as reported (60). […]

SCCO13 cells = experiment: Intradermal tumorigenicity assay, ERß agonist study; type: in vivo, NOD/SCID mice
Protocol: SCC013 cells were injected intradermally in the left supra-scapular region of NOD/SCID mice (1×10^6 cells per injection). […] Animals were sacrificed 10 days later. Tumor weight and volume were measured, followed by determination of Ki67-labeling index by immunofluorescence analysis of histological section. *P<0.05.
Lenti-virally-infected SCC13, SCCO13 cells and retro-virally infected H2170 cells were suspended in matrigel followed by intra-dermal injection (1.0×10^6 cells in 150 μl per injection) into the back skin of 6 weeks old NOD/SCID mice (Taconic Farms Inc. Germantown, N.Y.) as described (9, 42). To minimize the individual animal variations, cells infected with control and ERß expressing viruses were injected in parallel in the right and left flank of the same mice. Mice were sacrificed for tissue analysis 3 weeks (SCC13 and SCCO13) or 1 week (H2170) after injection. For ERß agonist studies, SCCO13 cells were injected intra-dermally into NOD/SCID mice as described above.

[5] = SCCO13 tumors, 20 mg/kg daily, data not shown

For `C[C@H](NC(=O)Cc1cc(F)cc(F)c1)C(=O)N[C@H](C(=O)OC(C)(C)C)c1ccccc1` [DAPT], the “induction of Hey1 and involucrin by enhanced expression of Dlx5 and ERβ” value (HKCs [1]) was “prevented to a large extent” and the “induction of differentiation marker expression by increased ERß expression” value [2] was “significantly counteracted”.
`C[C@]12CC[C@@H]3c4ccc(O)cc4CC[C@H]3[C@@H]1CC[C@@H]2O` [17β-estradiol] was tested, and the Notch1 expression (HKCs [3]) was “induction” and the differentiation marker expression (HKCs [3]) was “induction”.
With `N#CC(Cc1ccc(O)cc1)c1ccc(O)cc1` (centres unmarked) [DPN, 2,3-bis(4-Hydroxyphenyl)-propionitrile] the Notch1 expression (HKCs [3]) was “induction”, the differentiation marker expression (HKCs [3]) was “induction” and the Notch1 expression (SCC cell lines) was “induction”. For the same molecule, the differentiation marker expression (SCC cell lines) was “induction”, the “proliferation of SCC cell lines” value (SCC cells) was “significantly suppressed” and the “sphere forming capability of SCC cell lines” value [4] was “significantly suppressed”. For the same molecule, the tumor size (SCCO13 cells; SCCO13 cells intradermally, 20 mg/kg intraperitoneally daily for 10 days, vs DMSO vehicle) was “significantly smaller size”, the “Notch1 expression in tumors” value (SCCO13 cells; [5]) was “increased” and the “differentiation marker expression in tumors” value (SCCO13 cells; [5]) was “increased”.
`CCCc1c(-c2ccc(O)cc2)nn(-c2ccc(O)cc2)c1-c1ccc(O)cc1` [PPT, 1,3,5-Tris(4-hydroxyphenyl)-4-propyl-1H-pyrazole] was tested, and the Notch1 expression (HKCs [3]) was “Little or no induction” and the differentiation marker expression (HKCs [3]) was “Little or no induction”.
In the case of `C[C@]12CC[C@@H]3c4ccc(O)cc4C[C@@H](CCCCCCCCC[S+]([O-])CCCC(F)(F)C(F)(F)F)[C@H]3[C@@H]1CC[C@@H]2O` (some centres unmarked) [Fulvestrant], the Notch1 expression (HKCs [3]) is reported as “suppressed” and the differentiation marker expression (HKCs [3]) is reported as “suppressed”.
